Assay results as given in ChEMBL document CHEMBL2073945, “Contribution of cholesterol and phospholipids to inhibitory effect of dimethyl-beta-cyclodextrin on efflux function of P-glycoprotein and multidrug resistance-associated protein 2 in vinblastine-resistant Caco-2 cell monolayers” (Pharm Res, 2004).

These compounds were tested against ATP-dependent translocase ABCB1 (Homo sapiens, UniProt P08183) (assay: TP_TRANSPORTER: transepithelial transport of Rhodamine 123 (basal to apical) in Caco-2R cells).
Assay type: functional, cell-based

Chain of ATP-dependent translocase ABCB1 (P08183 whole entry): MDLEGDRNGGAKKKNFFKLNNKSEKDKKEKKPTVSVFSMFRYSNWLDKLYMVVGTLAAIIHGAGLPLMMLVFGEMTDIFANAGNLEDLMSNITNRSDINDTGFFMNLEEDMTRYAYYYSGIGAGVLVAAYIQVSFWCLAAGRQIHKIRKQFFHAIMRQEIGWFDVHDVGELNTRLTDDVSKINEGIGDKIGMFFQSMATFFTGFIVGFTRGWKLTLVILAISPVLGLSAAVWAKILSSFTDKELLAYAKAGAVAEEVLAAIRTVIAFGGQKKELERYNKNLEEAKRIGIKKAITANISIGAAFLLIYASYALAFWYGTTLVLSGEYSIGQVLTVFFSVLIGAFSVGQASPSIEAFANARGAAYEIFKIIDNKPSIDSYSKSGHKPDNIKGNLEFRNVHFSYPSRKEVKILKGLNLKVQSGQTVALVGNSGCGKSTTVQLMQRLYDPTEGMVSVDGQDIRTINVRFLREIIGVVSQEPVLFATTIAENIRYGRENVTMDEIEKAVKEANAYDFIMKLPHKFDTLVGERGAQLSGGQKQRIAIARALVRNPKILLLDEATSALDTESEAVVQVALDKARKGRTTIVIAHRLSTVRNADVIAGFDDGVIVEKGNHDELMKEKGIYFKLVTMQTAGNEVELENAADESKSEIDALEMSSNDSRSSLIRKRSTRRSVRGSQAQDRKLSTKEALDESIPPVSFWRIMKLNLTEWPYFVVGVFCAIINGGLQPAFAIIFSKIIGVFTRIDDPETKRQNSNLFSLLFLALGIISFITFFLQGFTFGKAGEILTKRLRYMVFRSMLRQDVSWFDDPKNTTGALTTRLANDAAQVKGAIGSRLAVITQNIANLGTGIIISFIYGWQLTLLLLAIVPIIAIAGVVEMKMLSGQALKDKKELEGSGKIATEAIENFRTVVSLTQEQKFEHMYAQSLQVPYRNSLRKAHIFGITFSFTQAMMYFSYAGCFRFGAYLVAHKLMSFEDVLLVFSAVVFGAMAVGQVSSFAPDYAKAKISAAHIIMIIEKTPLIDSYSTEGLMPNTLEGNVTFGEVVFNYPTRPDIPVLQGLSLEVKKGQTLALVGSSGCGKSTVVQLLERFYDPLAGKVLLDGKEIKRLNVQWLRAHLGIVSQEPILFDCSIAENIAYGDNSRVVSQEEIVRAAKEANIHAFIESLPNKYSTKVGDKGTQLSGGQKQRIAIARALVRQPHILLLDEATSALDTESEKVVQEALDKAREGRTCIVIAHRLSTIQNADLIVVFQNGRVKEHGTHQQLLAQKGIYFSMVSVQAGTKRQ

| SMILES | Activity |
| --- | --- |
| COC[C@@H]1O[C@H]2O[C@@H]3[C@@H](O)[C@H](O)[C@H](O[C@@H]4[C@@H](O)[C@H](O)[C@H](O[C@H]5[C@H](OC)[C@@H](O)[C@@H](O[C@@H]6[C@@H](O)[C@H](O)[C@H](O[C@@H]7[C@@H](O)[C@H](O)[C@H](O[C@@H]8[C@@H](O)[C@H](O)[C@H](O[C@@H]1[C@@H](O)[C@@H]2O)O[C@H]8COC)O[C@H]7COC)O[C@H]6COC)O[C@@H]5COC)O[C@H]4COC)O[C@H]3COC | is not an inhibitor [-] |
| CCCC(OC(CCC)S(=O)(=O)O)S(=O)(=O)O.OC[C@H]1O[C@@H]2O[C@H]3[C@H](O)[C@@H](O)[C@@H](O[C@H]4[C@H](O)[C@@H](O)[C@@H](O[C@H]5[C@H](O)[C@@H](O)[C@@H](O[C@H]6[C@H](O)[C@@H](O)[C@@H](O[C@H]7[C@H](O)[C@@H](O)[C@@H](O[C@H]8[C@H](O)[C@@H](O)[C@@H](O[C@H]1[C@H](O)[C@H]2O)O[C@@H]8CO)O[C@@H]7CO)O[C@@H]6CO)O[C@@H]5CO)O[C@@H]4CO)O[C@@H]3CO | is not an inhibitor [-] |
| CC(O)COC[C@H]1O[C@@H]2O[C@H]3[C@H](O)[C@@H](O)[C@@H](O[C@H]4[C@H](O)[C@@H](O)[C@@H](O[C@H]5[C@H](O)[C@@H](O)[C@@H](O[C@H]6[C@H](O)[C@@H](O)[C@@H](O[C@H]7[C@H](O)[C@@H](O)[C@@H](O[C@H]8[C@H](O)[C@@H](O)[C@@H](O[C@H]1[C@H](O)[C@H]2O)O[C@@H]8COCC(C)O)O[C@@H]7COCC(C)O)O[C@@H]6COCC(C)O)O[C@@H]5COCC(C)O)O[C@@H]4COCC(C)O)O[C@@H]3COCC(C)O (stereo partly drawn) [2-HYDROXYPROPYL-BETA-CYCLODEXTRIN] | is not an inhibitor [-] |
| COC[C@H]1O[C@@H]2O[C@H]3[C@H](O)[C@@H](OC)[C@@H](O[C@H]4[C@H](O)[C@@H](OC)[C@@H](O[C@H]5[C@H](O)[C@@H](OC)[C@@H](O[C@H]6[C@H](O)[C@@H](OC)[C@@H](O[C@H]7[C@H](O)[C@@H](OC)[C@@H](O[C@H]8[C@H](O)[C@@H](OC)[C@@H](O[C@H]1[C@H](O)[C@H]2OC)O[C@@H]8COC)O[C@@H]7COC)O[C@@H]6COC)O[C@@H]5COC)O[C@@H]4COC)O[C@@H]3COC | inhibitor [+] |
